The values below come from patent US20230257347A1 (priority 2020, published 2023).

As usually defined, the EC50 is the concentration at which the effect is half-maximal. By IC50 is commonly meant the concentration that inhibits the measured activity by half.

Each structure is given as a SMILES string. Where a name gives a salt, the structure may show the parent alone. A value given as a limit tells only on which side of the number the result lay.

The target of experiment [1] is Adrenergic Receptor β2 (ADRB2) (Homo sapiens, UniProt P07550). The experiment is described as follows: cAMP assay, ADRB2. In kind it is cell-based. In general terms: Changes in cAMP serve as a functional read-out for many G protein-coupled receptors.
Adrenergic Receptor β2 (ADRB2), sequence (P07550 whole entry): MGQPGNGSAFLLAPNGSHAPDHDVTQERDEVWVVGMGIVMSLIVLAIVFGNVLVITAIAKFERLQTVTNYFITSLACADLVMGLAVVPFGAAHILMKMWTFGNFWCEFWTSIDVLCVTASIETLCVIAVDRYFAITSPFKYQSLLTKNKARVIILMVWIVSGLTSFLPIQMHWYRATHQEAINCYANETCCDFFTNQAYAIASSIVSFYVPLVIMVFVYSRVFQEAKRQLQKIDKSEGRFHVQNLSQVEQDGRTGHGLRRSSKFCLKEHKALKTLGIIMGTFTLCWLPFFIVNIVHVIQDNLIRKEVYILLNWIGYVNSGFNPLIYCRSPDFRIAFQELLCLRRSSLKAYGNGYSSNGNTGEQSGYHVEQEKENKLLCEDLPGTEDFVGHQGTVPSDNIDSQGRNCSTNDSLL
Experiment [2] deals with T1, Vascular endothelial growth factor receptor 2 (KDR tyrosine kinase) (VEGFR2) (Homo sapiens, UniProt P35968).
T1 construct: made in house; host or cells: E. coli BL21-derived host (T7 phage) or HEK-293
T1 sequence (P35968 20-1356): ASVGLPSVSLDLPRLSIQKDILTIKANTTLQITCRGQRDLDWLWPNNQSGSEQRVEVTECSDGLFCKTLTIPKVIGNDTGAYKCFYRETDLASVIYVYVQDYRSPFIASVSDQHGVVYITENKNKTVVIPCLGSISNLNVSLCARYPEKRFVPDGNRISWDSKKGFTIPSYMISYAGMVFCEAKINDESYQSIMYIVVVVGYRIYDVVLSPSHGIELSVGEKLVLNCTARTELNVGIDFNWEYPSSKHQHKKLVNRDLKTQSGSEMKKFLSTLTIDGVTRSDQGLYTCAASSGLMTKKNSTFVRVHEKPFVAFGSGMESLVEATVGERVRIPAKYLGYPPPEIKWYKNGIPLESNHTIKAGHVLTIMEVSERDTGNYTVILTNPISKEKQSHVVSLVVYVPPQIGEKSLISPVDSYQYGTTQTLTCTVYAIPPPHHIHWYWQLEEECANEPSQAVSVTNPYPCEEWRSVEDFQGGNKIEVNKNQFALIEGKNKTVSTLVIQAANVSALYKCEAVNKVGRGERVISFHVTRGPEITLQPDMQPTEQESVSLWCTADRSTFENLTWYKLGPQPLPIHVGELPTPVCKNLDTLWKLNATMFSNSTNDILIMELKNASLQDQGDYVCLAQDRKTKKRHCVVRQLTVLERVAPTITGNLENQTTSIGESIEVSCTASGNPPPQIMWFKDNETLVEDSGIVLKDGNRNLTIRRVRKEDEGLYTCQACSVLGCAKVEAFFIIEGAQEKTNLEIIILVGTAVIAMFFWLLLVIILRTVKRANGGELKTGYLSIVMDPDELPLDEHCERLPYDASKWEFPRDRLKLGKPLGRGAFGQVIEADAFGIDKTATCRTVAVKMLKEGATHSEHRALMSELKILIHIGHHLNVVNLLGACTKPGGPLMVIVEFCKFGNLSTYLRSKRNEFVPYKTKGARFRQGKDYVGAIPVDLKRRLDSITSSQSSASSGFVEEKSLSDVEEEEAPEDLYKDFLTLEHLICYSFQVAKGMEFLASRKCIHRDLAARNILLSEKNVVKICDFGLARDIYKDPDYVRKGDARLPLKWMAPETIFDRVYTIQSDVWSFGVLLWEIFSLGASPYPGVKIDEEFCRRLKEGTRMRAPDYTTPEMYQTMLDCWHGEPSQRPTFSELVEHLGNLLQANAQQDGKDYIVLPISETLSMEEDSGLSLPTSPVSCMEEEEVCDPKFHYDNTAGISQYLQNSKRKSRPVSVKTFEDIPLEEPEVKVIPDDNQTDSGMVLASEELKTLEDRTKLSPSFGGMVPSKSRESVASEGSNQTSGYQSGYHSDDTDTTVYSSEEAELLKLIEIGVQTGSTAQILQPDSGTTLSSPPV
Nature of the experiment: biochemical. In kind it is binding.

In experiment [3] the target is T2, Norepinephrine transporter (NET) (Homo sapiens, UniProt P23975).
T2 construct: expressed in transfected cells
T2 sequence (P23975 whole entry): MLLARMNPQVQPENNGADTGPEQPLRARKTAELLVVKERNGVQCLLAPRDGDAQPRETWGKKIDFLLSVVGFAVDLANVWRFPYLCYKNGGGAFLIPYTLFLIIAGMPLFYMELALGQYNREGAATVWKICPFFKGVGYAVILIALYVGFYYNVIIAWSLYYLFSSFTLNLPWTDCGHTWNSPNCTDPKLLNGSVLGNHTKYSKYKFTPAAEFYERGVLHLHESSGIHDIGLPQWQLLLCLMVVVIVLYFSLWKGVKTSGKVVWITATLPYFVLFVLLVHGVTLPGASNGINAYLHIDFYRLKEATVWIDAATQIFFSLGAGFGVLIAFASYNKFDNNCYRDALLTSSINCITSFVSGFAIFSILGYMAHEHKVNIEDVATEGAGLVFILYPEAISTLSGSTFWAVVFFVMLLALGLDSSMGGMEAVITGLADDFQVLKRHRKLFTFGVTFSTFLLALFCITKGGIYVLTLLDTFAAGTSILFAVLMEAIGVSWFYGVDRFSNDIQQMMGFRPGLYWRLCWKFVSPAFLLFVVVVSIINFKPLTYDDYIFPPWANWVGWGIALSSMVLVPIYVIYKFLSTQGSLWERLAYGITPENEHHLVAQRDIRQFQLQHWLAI
The experiment is described as follows: Monoamine transporter uptake assay (fluorescent substrate), NET. In kind it is cell-based.

Experiment [4] has as its target T3, Cyclooxygenase 2 (COX2) (Homo sapiens, UniProt P35354).
T3 construct: purchased BPS Bioscience
T3 sequence (P35354 18-604): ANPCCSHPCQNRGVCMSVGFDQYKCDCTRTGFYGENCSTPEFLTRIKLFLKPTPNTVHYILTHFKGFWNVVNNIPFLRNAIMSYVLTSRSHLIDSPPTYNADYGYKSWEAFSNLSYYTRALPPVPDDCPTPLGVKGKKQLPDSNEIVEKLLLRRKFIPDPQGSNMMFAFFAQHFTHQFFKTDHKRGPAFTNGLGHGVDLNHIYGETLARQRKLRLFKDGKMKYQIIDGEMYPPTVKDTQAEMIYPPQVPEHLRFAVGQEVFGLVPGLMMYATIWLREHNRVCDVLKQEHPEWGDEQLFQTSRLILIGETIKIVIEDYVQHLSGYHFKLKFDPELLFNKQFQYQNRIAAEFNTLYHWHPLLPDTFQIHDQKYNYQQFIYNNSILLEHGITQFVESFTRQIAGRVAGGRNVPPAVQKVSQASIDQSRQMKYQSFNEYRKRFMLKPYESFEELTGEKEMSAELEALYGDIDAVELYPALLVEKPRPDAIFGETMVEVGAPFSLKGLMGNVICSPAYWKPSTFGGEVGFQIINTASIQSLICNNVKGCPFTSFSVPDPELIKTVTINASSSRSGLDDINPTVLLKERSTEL
The experiment is described as follows: Enzymatic assay, COX2. In kind it is biochemical.

In experiment [5] the target is Histamine Receptor H2 (HRH2) (Homo sapiens, UniProt P25021). The experiment is described as follows: cAMP assay, HRH2. The format is cell-based.
Histamine Receptor H2 (HRH2), sequence (P25021 whole entry): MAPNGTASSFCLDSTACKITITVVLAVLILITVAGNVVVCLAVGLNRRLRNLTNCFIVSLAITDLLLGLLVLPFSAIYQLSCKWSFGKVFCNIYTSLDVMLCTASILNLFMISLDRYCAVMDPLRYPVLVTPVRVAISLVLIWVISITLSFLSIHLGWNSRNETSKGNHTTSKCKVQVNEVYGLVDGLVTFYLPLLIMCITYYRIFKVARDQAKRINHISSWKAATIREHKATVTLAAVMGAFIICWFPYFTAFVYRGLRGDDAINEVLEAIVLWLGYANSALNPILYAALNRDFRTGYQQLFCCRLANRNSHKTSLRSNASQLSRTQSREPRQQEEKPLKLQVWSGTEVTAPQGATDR
The target of experiment [6] is Opioid Receptor Kappa 1 (OPRK1) (Homo sapiens, UniProt P41145). The experiment is described as follows: cAMP assay, OPRK1. In kind it is cell-based.
Opioid Receptor Kappa 1 (OPRK1), sequence (P41145 whole entry): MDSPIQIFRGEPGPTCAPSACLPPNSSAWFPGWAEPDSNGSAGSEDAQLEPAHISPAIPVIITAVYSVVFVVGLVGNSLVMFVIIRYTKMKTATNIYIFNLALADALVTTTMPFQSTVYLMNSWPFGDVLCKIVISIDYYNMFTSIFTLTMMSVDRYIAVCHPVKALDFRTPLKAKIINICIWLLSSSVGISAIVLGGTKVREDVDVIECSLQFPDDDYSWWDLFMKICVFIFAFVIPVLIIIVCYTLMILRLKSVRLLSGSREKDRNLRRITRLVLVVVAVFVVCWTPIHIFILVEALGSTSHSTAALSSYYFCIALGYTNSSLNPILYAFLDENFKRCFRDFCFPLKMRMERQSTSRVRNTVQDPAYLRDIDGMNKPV
For experiment [7], the target named is T4, Muscarinic acetylcholine Receptor M1 (CHRM1) (Homo sapiens, UniProt P11229).
T4 sequence (P11229 1-460): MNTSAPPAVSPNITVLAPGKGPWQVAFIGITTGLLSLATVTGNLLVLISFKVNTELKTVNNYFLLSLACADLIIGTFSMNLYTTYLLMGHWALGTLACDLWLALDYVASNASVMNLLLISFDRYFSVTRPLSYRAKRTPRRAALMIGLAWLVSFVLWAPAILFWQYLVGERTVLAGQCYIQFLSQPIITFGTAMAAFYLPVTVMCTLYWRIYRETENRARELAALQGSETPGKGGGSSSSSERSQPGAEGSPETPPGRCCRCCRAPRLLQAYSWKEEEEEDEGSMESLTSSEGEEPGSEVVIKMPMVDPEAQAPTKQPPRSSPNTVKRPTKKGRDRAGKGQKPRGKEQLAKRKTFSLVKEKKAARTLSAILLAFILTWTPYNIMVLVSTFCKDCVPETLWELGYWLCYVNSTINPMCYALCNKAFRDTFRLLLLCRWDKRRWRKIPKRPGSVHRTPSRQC
The experiment is described as follows: cell-based.

In experiment [8] the target is T5, Lymphocyte Cell-Specific Protein-Tyrosine Kinase (LCK) (Homo sapiens, UniProt P06239).
T5 construct: made in house; host or cells: E. coli BL21-derived host (T7 phage) or HEK-293
T5 sequence (P06239 whole entry): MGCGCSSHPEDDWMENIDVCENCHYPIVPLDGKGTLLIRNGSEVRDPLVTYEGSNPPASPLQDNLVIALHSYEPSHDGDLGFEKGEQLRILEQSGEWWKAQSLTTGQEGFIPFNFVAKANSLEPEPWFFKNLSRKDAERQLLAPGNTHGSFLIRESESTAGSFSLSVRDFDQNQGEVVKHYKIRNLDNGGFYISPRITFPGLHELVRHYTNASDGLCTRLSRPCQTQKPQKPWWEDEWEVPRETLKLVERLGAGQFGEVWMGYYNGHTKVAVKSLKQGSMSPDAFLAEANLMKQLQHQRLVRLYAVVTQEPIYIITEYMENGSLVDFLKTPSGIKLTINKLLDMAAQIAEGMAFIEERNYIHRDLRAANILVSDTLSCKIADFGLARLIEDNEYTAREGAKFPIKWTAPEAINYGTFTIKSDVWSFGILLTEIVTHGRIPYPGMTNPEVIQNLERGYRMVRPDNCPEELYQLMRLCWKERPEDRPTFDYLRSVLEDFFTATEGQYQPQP
Nature of the experiment: KINOMEscan binding assay, LCK.

In experiment [9] the target is 5-Hydroxytryptamine (Serotonin) Receptor 2B (5-HT2B) (Homo sapiens, UniProt P41595). The experiment is described as follows: Calcium flux secondary messenger assay, 5-HT2B. The format is cell-based. Background: Calcium flux is commonly read through the fluorescence of an indicator in the cells.
5-Hydroxytryptamine (Serotonin) Receptor 2B (5-HT2B), sequence (P41595 whole entry): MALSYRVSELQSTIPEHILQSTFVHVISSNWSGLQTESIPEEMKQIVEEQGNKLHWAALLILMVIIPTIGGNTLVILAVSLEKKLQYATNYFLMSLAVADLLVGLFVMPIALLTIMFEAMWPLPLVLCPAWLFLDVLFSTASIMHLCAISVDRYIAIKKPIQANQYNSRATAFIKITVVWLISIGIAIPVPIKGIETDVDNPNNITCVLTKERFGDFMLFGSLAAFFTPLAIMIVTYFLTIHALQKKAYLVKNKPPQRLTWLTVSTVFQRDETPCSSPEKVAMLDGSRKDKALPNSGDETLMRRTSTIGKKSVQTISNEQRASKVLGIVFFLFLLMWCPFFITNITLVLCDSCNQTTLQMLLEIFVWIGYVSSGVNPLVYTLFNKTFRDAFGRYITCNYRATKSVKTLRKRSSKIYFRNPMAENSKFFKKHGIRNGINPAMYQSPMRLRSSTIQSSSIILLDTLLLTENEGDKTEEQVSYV
The target in experiment [10] is 5-Hydroxytryptamine (Serotonin) Receptor 1B (5-HT1B) (Homo sapiens, UniProt P28222). Nature of the experiment: cAMP secondary messenger assay, 5-HT1B. The format is cell-based.
5-Hydroxytryptamine (Serotonin) Receptor 1B (5-HT1B), sequence (P28222 whole entry): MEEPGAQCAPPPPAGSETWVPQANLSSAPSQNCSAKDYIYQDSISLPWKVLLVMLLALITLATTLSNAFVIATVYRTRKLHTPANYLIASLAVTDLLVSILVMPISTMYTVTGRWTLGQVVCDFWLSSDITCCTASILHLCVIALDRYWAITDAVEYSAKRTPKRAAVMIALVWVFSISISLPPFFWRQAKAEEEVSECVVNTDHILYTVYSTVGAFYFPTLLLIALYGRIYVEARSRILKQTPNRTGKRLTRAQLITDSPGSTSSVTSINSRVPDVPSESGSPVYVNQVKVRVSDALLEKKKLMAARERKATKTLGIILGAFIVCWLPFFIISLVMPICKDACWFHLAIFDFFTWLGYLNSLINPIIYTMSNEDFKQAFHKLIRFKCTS
Experiment [11] concerns the target T6, Nuclear Hormone Glucocorticoid Receptor (GR) (Homo sapiens, UniProt P04150).
T6 sequence (P04150 1-777): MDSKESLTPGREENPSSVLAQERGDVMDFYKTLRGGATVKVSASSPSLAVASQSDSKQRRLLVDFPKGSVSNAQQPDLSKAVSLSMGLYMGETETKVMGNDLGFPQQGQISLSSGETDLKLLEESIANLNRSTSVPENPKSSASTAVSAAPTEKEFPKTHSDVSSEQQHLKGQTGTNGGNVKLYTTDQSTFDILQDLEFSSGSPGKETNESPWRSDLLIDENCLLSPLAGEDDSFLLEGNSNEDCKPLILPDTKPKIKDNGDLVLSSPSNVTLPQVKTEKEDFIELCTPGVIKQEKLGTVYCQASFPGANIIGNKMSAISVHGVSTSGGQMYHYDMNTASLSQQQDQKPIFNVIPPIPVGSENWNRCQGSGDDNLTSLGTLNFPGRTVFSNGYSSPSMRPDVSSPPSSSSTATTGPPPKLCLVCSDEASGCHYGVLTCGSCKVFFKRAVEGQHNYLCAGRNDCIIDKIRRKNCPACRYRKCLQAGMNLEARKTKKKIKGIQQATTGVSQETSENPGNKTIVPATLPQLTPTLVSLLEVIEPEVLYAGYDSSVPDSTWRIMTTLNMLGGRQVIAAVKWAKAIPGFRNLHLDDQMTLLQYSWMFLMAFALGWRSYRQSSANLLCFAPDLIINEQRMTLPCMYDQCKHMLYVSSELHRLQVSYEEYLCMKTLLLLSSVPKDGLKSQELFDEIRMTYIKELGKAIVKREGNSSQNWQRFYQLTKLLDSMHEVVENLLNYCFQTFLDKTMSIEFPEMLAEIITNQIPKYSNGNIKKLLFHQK
The experiment is described as follows: NHR Protein Interaction assay, GR. The format is cell-based.

For `CNC(C)C(=O)c1c[nH]c2ccc(Br)cc12` (stereo not drawn) [BK-5Br-NM-AMT, 1-(5-bromo-1H-indol-3-yl)-2-(methylamino) propan-1-one hydrochloride], the EC50 in experiment [1], in [5], in [6], in experiment [7], in experiment [9] and in experiment [10] was above 10 µM in each case. In [11], this compound showed an EC50 above 10 µM. For the same compound, the IC50 was 5.44 µM in experiment [1]; above 10 µM in experiment [2]; above 10 µM in experiment [3]; above 10 µM in experiment [4]; above 10 µM in experiment [5]; above 10 µM in [6]. The IC50 in experiment [7] is above 10 µM; in experiment [8], above 10 µM; in experiment [9], 0.0447 µM; in experiment [10], above 10 µM; in experiment [11], above 10 µM.

With `CNC(C)C(=O)c1c[nH]c2ccc(Cl)cc12` (stereo not drawn) [BK-5Cl-NM-AMT, 1-(5-chloro-1H-indol-3-yl)-2-(methylamino) propan-1-one hydrochloride], the EC50 in experiment [1], in experiment [5], in experiment [6], in experiment [7], in [9] and in [10] was above 10 µM in each case. Further, in [11], the EC50 was above 10 µM. For the same compound, the IC50 in experiment [1] was 8.68 µM; in experiment [2] it was above 10 µM; in [3], above 10 µM; in experiment [4] it was above 10 µM; in [5], above 10 µM; in experiment [6], above 10 µM. For the same compound, the IC50 is above 10 µM in [7]; above 10 µM in experiment [8]; 0.0921 µM in experiment [9]; above 10 µM in [10]; above 10 µM in [11].

As for `CNC(C)C(=O)c1c[nH]c2ccc(F)cc12` (stereo not drawn) [BK-5F-NM-AMT, 1-(5-Fluoro-1H-indol-3-yl)-2-(methylamino) propan-1-one hydrochloride], the 50% effective concentration (EC50) in [1], in experiment [5], in experiment [6], in experiment [7], in experiment [9] and in experiment [10] was above 10 µM throughout. Besides, the concentration giving a half-maximal response (EC50) in experiment [11] was above 10 µM. In addition, the half-inhibitory concentration (IC50) in [1], in experiment [2], in experiment [3], in [4], in [5] and in [6] was above 10 µM in each case. Moreover, the IC50 is above 10 µM in experiment [7]; above 10 µM in experiment [8]; 0.587 µM in experiment [9]; above 10 µM in experiment [10]; above 10 µM in experiment [11].
